Patent publication US11098039B2, “Benzodiazepine product with activity on the central nervous and vascular systems” (UNIVERSIDAD DE LA HABANA, priority 2016, dated 2021)
Entries after “also recorded” stand apart in the source; their conditions may differ.

How the values were obtained:
rats = experiment: 5% formalin test (tonic pain), Phase II; format: in vivo; details: Phase II (15-45 min), flumazenil pre-treatment study
Experimental: We studied the effect of JM-20 (10, 20, 40 mg/Kg, p.o) on behaviors related to pain in a tonic pain model (5% formalin test) in rats. (Dubuisson D, Dennis S G. The formalin test: a quantitative study of the analgesic effects of morphine, meperidine and brain-stem stimulation in rats and cats. Pain 1977; 4:161-174).
Each column represents the reaction time of 6-10 animals per group as the mean±EEM, * P<0.05, ***P<0.001 represents the statistical differences between treated and control groups (only vehicle), ****P<0.05 represents statistical differences between groups treated with diazepam in the presence or absence of flumazenil, 1p<0.05 represents statistical differences between groups treated with JM-20 in the presence or absence of flumazenyl.

male Wistar rats [1] = experiment: Exploratory Activity Test (vertical exploration) after unilateral 6-OHDA lesion; format: in vivo; details: 6-OHDA damage, after 7 days of treatment, statistically different at 40 mg/Kg versus untreated injured animals
Experimental: (§1) Male adult Wistar rats were used, weighing between 200 and 250 grams at the start of the experiment, coming from the National Laboratory Animal Production Center (CENPALAB), Havana, Cuba. The animals were kept at the Center for the Research and Development of Medicines (CIDEM) in plastic translucent boxes at an average temperature of 23° C. (22±2° C.), with food and water supplies ad libitum and 12-hour periods of light and dark.
JM-20 was administered in 3 different doses: 10, 20 and 40 mg/Kg, 24 hours after inducing damage and on a daily basis for 7 days. The compound was prepared in carboxymethylcellulose (CMC) at 0.05%, intragastrically with a cannula. […]
In order to assess the vertical exploratory activity of animals we used the Exploratory Activity Test; the animal is placed in a clear Plexiglas cubicle, 41×41×33 (h) cm, (UGO BASILE, MultipleActivityCage Cat. No. 47420. Data output is managed by 52050-04 Data Acquisition Software Package (Windows® based). The cubicle is supported on a robust base made of black Plexiglas that has 4 vertical steel bars with steel grooves so that the horizontal/vertical detection systems are correctly affixed. The sensors are IR light emission systems capable of registering animal movements by shapes, or rather vertical exploration. Data is monitored on a computer. […]

CCI rats = experiment: Histology of sciatic nerve (Wallerian degeneration) in chronic constriction injury (CCI) model; format: in vivo; details: JM-20 20 mg/Kg p.o., repeated doses for 7 days starting Day 7 post-CCI, 14 days after surgery, H/E and luxol fast blue
Source text: We studied the effect of JM-20 on the chronic constriction of the sciatic nerve model (CCI), an NP model (Bennett M I, Rayment C, Hjermstad M, Aass N, Caraceni A, Kaasa S. Prevalence and aetiology of neuropathic pain in cancer patients: A systematic review. Pain 2012; 153:359-365) Results are presented in FIG. 19-23.
A, B and C show the longitudinal section of the sciatic nerve 5 mm distal to the lesion on CCI Sham rats, CCI treated with JM-20 and treated with vehicle respectively (H/E coloration). We can observe the increase in cellularity in CCI animals relatively compared with sham operated animals as the result of the proliferation of Schawann cells and the infiltration of macrophages and the loss of an orderly alignment of axons associated to their myelin sheathes as compared to the sham-CCI. The arrow indicates one of the many digestion chambers of Schawann cells containing a myelin ovoid (reddish oval mass). D, E, F show sections from the same animals but they are colored by the luxol fast blue (LFB) technique, a specific technique for myelin tincture.

OF-1 mice = experiment: Memory loss induced by beta amyloid 25-35 peptide oligomers (in vivo); details: JM-20 administered 7 days after beta amyloid administration; 10 and 30 mg/kg orally for 10 days; Aβ 100 pmol i.c.v.
Experimental: For the different studies JM-20 was suspended in carboxymethyl cellulose (CMC) 0.05% and administered orally. Scopolamine bromide was dissolved in the 0.9% saline solution and administered intraperitoneally (1 mg/kg, 4 mL/Kg of weight). Aluminum chloride was dissolved in common drinking water for the experimental subjects and administered orally in a 500 mg/Kg peso dose, in chronic form for one month and while behavioral studies were conducted. Beta amyloid peptides (25-35) were oligomerized and made soluble according to the manufacturer's norms and administered via intracerebroventricular means at 100 pmols in 5 uL, into the right cerebral hemisphere.
In vivo experiments corresponding to the scopolamine and aluminum model used Wistar rats (males, 230-260 g), while in vivo experiments corresponding to the beta amyloid model used OF-1 mice (males, 25-30 g). All the animals came from the National Laboratory Animal Production Center (CENPALAB, Mayabeque, Cuba) and after their arrival they underwent adaptation to laboratory conditions for 7 days. […]
Subsequently we conducted in vivo studies on OF-1 mice. We assessed the effect of JM-20 on memory loss induced by beta amyloid oligomers administered 7 days after the intracerebroventricular administration of Aβ (100 pmols) during 10 days, orally in 10 and 30 mg/kg weight doses. […]

male Wistar rats [2] = experiment: Cylinder test after unilateral 6-OHDA lesion of the substantia nigra pars compacta; format: in vivo; details: 6-OHDA damage, after 7 days of treatment
Experimental: as §1
JM-20 was administered in 3 different doses: 10, 20 and 40 mg/Kg, 24 hours after inducing damage and on a daily basis for 7 days. The compound was prepared in carboxymethylcellulose (CMC) at 0.05%, intragastrically with a cannula. There were 5 experimentation groups: Group I (vehicle/saline with ascorbic acid, n=6), Group II (animals affected with 6-OHDA, n=8), Group III (animals affected with 6-OHDA and co-treated with 10 mg/Kg JM-20, n=8), Group IV (animals affected with 6-OHDA and co-treated with 20 mg/Kg JM-20, n=8) and Group V (animals affected with 6-OHDA and co-treated with 40 mg/Kg JM-20 n=8). All behavioral studies were run at 7 days.
For the purpose of proceeding to unilateral dopaminergic denervation of the striate body (right hemisphere) the rats were anesthetized with Chloral Hydrate [0.4 g/kg weight, i.p., Merck (Darmstadt, Germany)] and placed into a frame designed for stereotactic surgery (Stoelting Instruments, USA.), where they were injected in the right substantia nigra pars compacta with saline solution neurotoxin 6-OHDA-HBr (8 μg/3 μL, also containing 0.2 mg/ml of ascorbic acid as an antioxidant) (Pavón Fuentes, Nancy (2007) Efecto de la inactivación de los receptores dopaminérgicos D2 y de la manipulación del núcleo subtalámico sobre la conducta motora en modelos de hemiparkinsonismo en roedores. Doctor en Ciencias de una Especialidad, Universidad de Ciencias Médicas de La Habana). Coordinates were calculated taking Bregma as a point of reference in accordance with the Paxinos and Watson Atlas [Paxinos, G. and Watson, C., The rat brain in stereotaxic coordenates. 2nd the Academic Press. New York, 1986], referred to in Table 1. […]

## CCOC(=O)C1=C(C)NC2=C(C=Nc3ccccc3N2)C1c1ccccc1[N+](=O)[O-] (stereo not shown) [JM-20, 3-etoxicarbonil-2-methyl-4-(2-nitrofeenil)-4,11-dihydro-1H-pirido[2,3-b][1,5] benzodiacepine]
rats
  effect on Phase II of the 5% formalin test: antihypernociceptive effect
Male Wistar rats [1]
  vertical exploration: increased their vertical exploration
CCI rats
  histological changes induced by CCI (Wallerian degeneration): nerve fiber disorganization, cell number, myelin sheath degradation: reduced disorganization of the nerve fibers induced by CCI; also recorded: Reduction in CCI-induced nerve fiber disruption and cell count increase and myelin sheath degradation
OF-1 mice
  memory loss induced by beta amyloid 25-35 peptide oligomers: reverts memory loss
Male Wistar rats [2]; JM-20 40 and 20 mg/Kg
  use of the paw contralateral to the damage: increased use of the paw contralateral to the damage; also recorded: increased use of contralateral leg
Male Wistar rats [2]; both doses of JM-20 (40 and 20 mg/Kg), normal values
  use of the ipsilateral paw: ~50%
Male Wistar rats [2]; versus injured animals without treatment
  % of asymmetry (cylinder test), motor damage: diminished motor damage; also recorded: decrease in motor damage
